Data reported in PubChem BioAssay (NCI).
Several values for one entry are separate records, joined by “and”; a condition that tells them apart may be missing. Equal values may be shown once.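 1) Cells in 96-well plates. 2) Compound, 48 h, 5 concentrations. 3) Linear interpolation between surrounding doses. 4) Unreached endpoint = highest concentration. GI50: concentration for 50% inhibition of growth. Definition used: TGI = concentration required for complete inhibition of growth.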

Key:
Assay in all cases: NCI tumour cell line growth inhibition, 48 h
A498 renal = tested on: A498 renal
BT-549 breast = tested on: BT-549 breast
MDA-MB-231 breast = tested on: MDA-MB-231 breast
MDA-N = tested on: MDA-N
OVCAR-4 ovarian = tested on: OVCAR-4 ovarian
OVCAR-5 ovarian = tested on: OVCAR-5 ovarian
SK-MEL-5 melanoma = tested on: SK-MEL-5 melanoma
U251 CNS = tested on: U251 CNS
UO-31 renal = tested on: UO-31 renal

SMILES	TGI (A498 renal)	TGI (BT-549 breast)	TGI (MDA-MB-231 breast)	TGI (MDA-N) [µM]	TGI (OVCAR-4 ovarian)	TGI (OVCAR-5 ovarian)	TGI (SK-MEL-5 melanoma)	TGI (U251 CNS)	TGI (UO-31 renal)	GI50 (A498 renal)	GI50 (BT-549 breast)	GI50 (MDA-MB-231 breast)	GI50 (OVCAR-4 ovarian)	GI50 (OVCAR-5 ovarian)	GI50 (SK-MEL-5 melanoma)	GI50 (U251 CNS)	GI50 (UO-31 renal)
Clc1ccc2c(NC3CCC(N4CCCCC4)CC3)ccnc2c1 (configuration not stated)	38.6 µM	42.8 µM	40 µM	33.2	78.6 µM	> 100 µM	30.6 µM	57.1 µM	28 µM								
Nc1nc(N)c2c(ccc3c2ccn3Cc2cccc([N+](=O)[O-])c2)n1	1.97 µM and 1.94 µM	3.05 µM	2.64 µM		2.59 µM	2.36 µM	2.15 µM and 1.45 µM	1.72 µM	0.806 µM	0.166 µM and 0.224 µM	1.25 µM	1.27 µM	1.15 µM	0.0504 µM	0.0744 µM	0.018 µM	0.043 µM
Cc1c(C(=O)Nc2ccc(N3C[C@@H](C)O[C@@H](C)C3)nc2)cccc1-c1ccc(OC(F)(F)F)cc1	14 µM and 9.97 µM	40.7 µM and 43.9 µM	21.4 µM and 31.3 µM		21.4 µM and 36.2 µM	42.7 µM and 48.9 µM	20.8 µM and 38.3 µM	28 µM and 38.4 µM	19 µM and 27 µM	3.77 µM and 2.04 µM	10.4 µM and 15.1 µM	5.91 µM and 11.8 µM	4.28 µM and 11.5 µM	15.7 µM and 19.6 µM	3.83 µM and 5.23 µM	8.6 µM and 12 µM	3.52 µM and 8.63 µM
O=C(Nc1ccc(Br)c2ccccc12)c1ccc2ccccc2c1O	30.8 µM	11.3 µM	16.8 µM	15.6	> 100 µM	12.7 µM	3.78 µM	35.2 µM	12.9 µM								
CCC[CH2][Sn]1([CH2]CCC)[O]C(=O)c2cccc([N+](=O)[O-])c2C(=O)[O]1	0.547 µM	2.09 µM	1.04 µM		1.73 µM	2.49 µM	2.22 µM	1.94 µM	1.41 µM	0.191 µM	0.849 µM	0.271 µM	0.465 µM	1.11 µM	0.919 µM	0.633 µM	0.329 µM
COc1c(C(N)=O)cc(-c2ccc(Cl)cc2)cc1-c1ccc(S(N)(=O)=O)cc1	> 23.3 µM	> 25 µM	24.2 µM		> 25 µM	> 25 µM	> 25 µM	> 25 µM	> 23.5 µM	9.03 µM	10.5 µM	10.3 µM	10.6 µM	15 µM	7.4 µM	9.52 µM	9.95 µM
CC(=O)OC1CC2(C)C(=CC1C1SCCS1)CCC1C2CCC2(C)C(OC(C)=O)CCC12 (configuration not stated)	> 100 µM	> 100 µM	> 100 µM	> 100	> 100 µM	> 100 µM	> 100 µM	> 100 µM	> 100 µM								
O=C(Nc1cccc([N+](=O)[O-])c1)c1cccc(C(=O)Nc2cccc([N+](=O)[O-])c2)c1	79.5 µM	> 100 µM	> 100 µM		> 100 µM	> 100 µM	> 100 µM	> 68.2 µM	> 100 µM	20.2 µM	9.05 µM	12.1 µM	> 100 µM	> 100 µM	> 100 µM	7.15 µM	> 100 µM
CC1Cc2c(Cl)ncnc2N(C)c2ccccc21 (configuration not stated)	5.41 µM	33.9 µM	5.05 µM		> 100 µM	> 100 µM	3.62 µM	37.9 µM	89.1 µM	1.98 µM	5 µM	2.39 µM	3.02 µM	6.02 µM	1.85 µM	3.92 µM	3.37 µM
C[C@]12CC[C@H]3[C@@H](CC[C@]4(O)C[C@@H](O)CC[C@]34C=O)[C@@]1(O)CC[C@@H]2C1=CC(=O)OC1	1.93 µM	1.08 µM	> 29.6 µM		2.33 µM	3.57 µM	1.16 µM	2.9 µM	2.91 µM								
Nc1nc(-c2ccc3c(c2)/C(=C\c2cc(Br)c(O)c(Br)c2)C(=O)N3)cs1	16.5 µM	> 23.8 µM	> 25 µM		> 25 µM	> 25 µM	12.1 µM	> 25 µM	> 25 µM	5.57 µM	11.4 µM	17.3 µM	> 25 µM	> 25 µM	5.4 µM	12.8 µM	19.1 µM
O=C1/C=C/[C@@H](O)[C@@H]2C[C@@H](O)C[C@H]2/C=C/CCC[C@H](CCO)O1	0.274 µM	> 31.5 µM	0.391 µM		> 100 µM	> 100 µM	0.0423 µM	> 100 µM	> 100 µM	0.0442 µM	0.33 µM	0.182 µM	0.132 µM	0.396 µM	0.0201 µM	0.382 µM	0.22 µM
CC12CCC(C1)C(C)(C)C2OC(=O)c1ccccc1N (configuration not stated)	28.6 µM	34.3 µM	30.2 µM	29.7		35 µM	31 µM	32.6 µM	30.8 µM								
CN1CCN(Cc2ccc(NC(=O)c3cncc(C#Cc4ccc(N)nc4)c3)cc2C(F)(F)F)CC1	1.93 µM	6.43 µM	1.71 µM		4.5 µM	7.22 µM	3.24 µM	6.6 µM	2.93 µM	0.567 µM	1.62 µM	0.634 µM	0.46 µM	1.38 µM	1.17 µM	0.924 µM	0.716 µM
CCOC(=O)N1CCC(N=C2CSc3nnc(-c4cc(C(F)(F)F)cc(C(F)(F)F)c4)n3N2)CC1	5.52 µM	3.79 µM	3.56 µM		5.49 µM	4 µM	3 µM	3.53 µM	5.4 µM	1.94 µM	1.89 µM	1.81 µM	1.86 µM	1.95 µM	1.61 µM	1.77 µM	1.66 µM
CC1=CC2(C)/C=C(C)/C=C\CC(O)/C=C3/C=CC(=C4C(=O)OC2(CC1C)C4=O)OC3 (configuration not stated)	8.11 µM	4.79 µM	4.25 µM		4.91 µM	10.1 µM	11.6 µM	3.58 µM	3.06 µM	2.65 µM	2.11 µM	1.99 µM	1.89 µM	2.93 µM	3.07 µM	1.64 µM	1.46 µM

SMILES	TGI (A498 renal)	TGI (BT-549 breast)	TGI (MDA-MB-231 breast)	TGI (MDA-N) [µM]	TGI (OVCAR-4 ovarian)	TGI (OVCAR-5 ovarian)	TGI (SK-MEL-5 melanoma)	TGI (U251 CNS)	TGI (UO-31 renal)	GI50 (A498 renal)	GI50 (BT-549 breast)	GI50 (MDA-MB-231 breast)	GI50 (OVCAR-4 ovarian)	GI50 (OVCAR-5 ovarian)	GI50 (SK-MEL-5 melanoma)	GI50 (U251 CNS)	GI50 (UO-31 renal)
CN(C(=O)C(C)(C)C)c1ccccc1I(=O)=O	> 100 µM	> 100 µM	> 100 µM		> 100 µM	> 100 µM	> 100 µM	> 100 µM	> 100 µM	> 100 µM	> 100 µM	> 100 µM	> 100 µM	> 100 µM	74.1 µM	89.1 µM	> 100 µM
COc1cccc(N2CC(O)=C(c3nc4ccccc4s3)C2=N)c1	20 µM	> 100 µM	3.42 µM		> 100 µM	> 95 µM	23 µM	19.5 µM	> 70.3 µM	0.33 µM	0.726 µM	0.359 µM	6.19 µM		0.211 µM	0.42 µM	0.717 µM
Cc1cc(I)cc(CN(C)CCCN2CCC(C)CC2)c1O	21.2 µM	23.8 µM	32 µM		31.7 µM	34.4 µM	17.2 µM	29.8 µM	24.8 µM	7.53 µM	11.2 µM	15.1 µM	13.1 µM	15.6 µM	4.98 µM	15.2 µM	11.4 µM
Nc1ccc(C#Cc2ccccc2C#CCCCCO)cc1	42.1 µM	34.8 µM	27.5 µM		32.6 µM	31.3 µM	38.6 µM	23.1 µM	30.5 µM	19.8 µM	16.3 µM	14 µM	16.7 µM	16.4 µM	19.8 µM	11.1 µM	16.6 µM
Cc1ccc(NC(=O)COc2ccc(Cl)cc2)cc1Cl	> 100 µM	> 100 µM	59.7 µM		> 100 µM	> 100 µM	> 100 µM	> 100 µM	> 100 µM								
Oc1c(C(c2ccc(F)cc2)N2CCCCC2)ccc2cncnc12 (configuration not stated)	9.43 µM	> 100 µM	> 100 µM		> 100 µM	> 100 µM	3.63 µM	> 100 µM	6.62 µM	1.46 µM	0.576 µM	1.5 µM	1.77 µM	1.28 µM	0.529 µM	0.325 µM	0.834 µM
N#C/C(=C\c1ccc[nH]1)c1cc(-c2ccc(Cl)cc2)nn1-c1ccccc1	12.6 µM	15.7 µM	33 µM		> 56.3 µM	50.3 µM	19.4 µM	24 µM	31 µM	2.62 µM	4.72 µM	5.78 µM	1.73 µM	15.7 µM	6.47 µM	7.07 µM	3.82 µM
COc1ccc(C(=O)/C=C/c2ccc(OCc3cccc(C(F)(F)F)c3)c(OC)c2)cc1OC	> 1000 µM	476 µM	> 1000 µM		> 1000 µM	> 1000 µM	301 µM	> 1000 µM	> 1000 µM	207 µM	38.1 µM	51.1 µM	51.7 µM	292 µM	38.4 µM	61.4 µM	47.3 µM
C=C1C(=O)O[C@@H]2/C=C(/C)[C@@H](OC(C)=O)C[C@@H](O)/C(C)=C\[C@@H](OC(=O)[C@]3(C)O[C@@H]3C)[C@@H]12	32.3 µM	18.8 µM	29.9 µM	30.1	45.8 µM	32.6 µM	24.7 µM	31.3 µM									
O=C(Nc1nc2c(C(F)(F)F)cccc2s1)c1cc(Cl)ccc1O	0.519 µM	1.79 µM	0.952 µM		> 100 µM	25.7 µM	0.446 µM	42.6 µM	11.7 µM	0.181 µM	0.305 µM	0.27 µM	0.34 µM	0.317 µM	0.193 µM	0.312 µM	0.265 µM
COC(=O)C1=C(C)NC(=S)NC1c1ccc(N(CCCl)CCCl)cc1Cl (configuration not stated)	> 100 µM	> 100 µM	> 100 µM		> 84.1 µM	> 100 µM	20.1 µM	> 100 µM	> 80.7 µM	46.9 µM	73.5 µM						
CC(C)(C)NCC(O)c1ccccc1Cl (configuration not stated)	> 100 µM	> 100 µM	> 100 µM		> 100 µM	> 100 µM	> 100 µM	> 100 µM	> 100 µM	> 100 µM	> 100 µM	> 100 µM	> 100 µM	> 100 µM	> 100 µM	> 100 µM	> 100 µM
CCCCCCCCN(CCCCCCCC)CC(O)c1cc(-c2ccccc2)nc2ccc(OC)cc12 (configuration not stated)	> 100 µM	64 µM	> 100 µM		> 100 µM	> 100 µM	> 100 µM	96.2 µM	> 100 µM	> 100 µM	23.9 µM	11.1 µM	51 µM	> 100 µM	34.4 µM	27.8 µM	34.4 µM
COc1nn(C)cc1Nc1nccc(-c2c[nH]c3c(NC(=O)[C@@H](C)N4CCN(C)CC4)cccc23)n1	45.2 µM	72.9 µM	> 100 µM		> 100 µM	> 100 µM	36.5 µM	> 100 µM	> 100 µM	15.9 µM	22.5 µM	34.9 µM	47.9 µM	42.5 µM	18.5 µM	43.7 µM	20.7 µM
Clc1cnc(Nc2ccc(OCCN3CCCC3)cc2)nc1NCc1ccco1	3.88 µM	7.47 µM	13.5 µM		13.9 µM	> 100 µM	3.42 µM	11.4 µM	11.6 µM	1.45 µM	2.29 µM	2.48 µM	2.86 µM	1.95 µM	1.62 µM	2.81 µM	1.87 µM
Cn1nc(C(F)(F)F)cc1-c1cc(Cl)c(OCc2ccc(Cl)cc2)c(-c2ccc(Cl)c(C(F)(F)F)c2)c1O	1.09 µM	2.75 µM	2.43 µM		7.14 µM	7.4 µM	1.74 µM	5.13 µM	3.51 µM	0.251 µM	0.995 µM	0.958 µM	1.66 µM	1.72 µM	0.777 µM	1.05 µM	1.12 µM
